Data on seven compounds can be found in patent US4616015A, “Triazine derivatives, and pharmaceutical compositions comprising the same” (Fujisawa Pharmaceutical Co., Ltd., priority 1983, dated 1986).

pIC50: −log10 of the molar value. Counter-ions that a name gives are not always drawn.

In assay [1] the test system is blood pressure. The assay can be described thus: Antihypertensive activity (test A): maximum decrease of blood pressure in uninephrectomized DOCA/saline hypertensive rats, oral. In kind it is in vivo, male Wister rats. As for the experimental part:
Five-week old male Wister rats were uninephrectomized under anesthesia. Deoxycorticosterone acetate (DOCA) (30 mg/kg), suspended in peanut oil, was injected subcutaneously twice a week and 1% saline was substituted for the drinking water. Animals with mean blood pressure 150-200 mmHg were used for experiment between 5 and 7 weeks after surgery.
The test compounds were administered orally. Blood pressure was measured at the femoral artery by means of a pressure transducer and recorded as electrically integrated values of mean arterial pressure.

The test system of assay [2] is platelet aggregation. The assay can be described thus: Inhibition of platelet aggregation induced by ADP, platelet rich plasma (test B). It is filed as cell-based. The following applies: Oryctolagus cuniculus, inducer ADP (2.5 μM), rabbit PRP, 37° C., read-out: ID50, platelet aggregation, ADP. As for the experimental part: (§1) Platelet rich plasma (PRP) which contains 6.5-7.5×10^8 platelet/ml was prepared from rabbit blood. To the 200 μl of PRP, 5 μl of calcium chloride (1 mM) and 50 μl of pH 7.4 Tris-acetate solution (5 mM) containing 120 mM NaCl and test compound were added successively, and then stirred for 2 min. at 37° C. To the solution, 5 μl of adenosine diphosphate (ADP) (2.5 μM) or collagen (2.5 μg/ml) was added as an aggregation inducer. Aggregation was measured by using an aggregometer (NKK HEMA TRACER 1).

In assay [3] the test system is platelet aggregation. The assay can be described thus: Inhibition of platelet aggregation induced by collagen, platelet rich plasma (test B). In kind it is cell-based. The note with it: Oryctolagus cuniculus, inducer collagen (2.5 μg/ml), rabbit PRP, 37° C., read-out: ID50, platelet aggregation, collagen. On the procedure: as §1
The subject of assay [4] is ethanol ulcer. The assay can be described thus: Ethanol ulcer, area of ulcers (test C). In kind it is in vivo, male Sprague-Dowley rats. The note with it: dose c: 32 mg/kg, oral, 30 minutes before ethanol. On the procedure: Five male Sprague-Dowley rats, aged 7 weeks and weighing about 200 g, were used per group for the study on ethanol ulcer after the fast for 24 hours.
Test compound was suspended in 0.1% methylcellulose aqueous solution, and the suspension (5 ml/kg) was orally given to each rat.
The control group was given a vehicle, i.e. 0.1% methylcellulose aqueous solution (5 ml/kg), alone in the same way.
Absolute ethanol (5 ml/kg) was orally administered 30 minutes after dosing with test compound, and one hour later, the rats were sacrificed and their stomachs were removed. The area of ulcers of each rat was measured. The mean area (mm^2) in the medicated group was compared with that in the control group.

For the compound `CC(Cl)C(=O)Nc1ccc(C2=NNC(=O)NC2C)cc1` (stereo not drawn) [5-(7), 6-[4-(2-Chloropropionylamino)phenyl]-5-methyl-4,5-dihydro-1,2,4-triazin-3(2H)-one], the “Effect Max (mean ratio of maximum decrease of blood pressure)” value in assay [1] (dose a: 0.1 mg/kg) worked out at 18.7%; in assay [1] (dose b: 1 mg/kg) it was 51.8%.

Regarding `CC(=O)C(=O)Nc1ccc(C2=NNC(=O)NC2C)cc1` (stereo not drawn) [5-(19), 6-(4-Pyruvoylaminophenyl)-5-methyl-4,5-dihydro-1,2,4-triazin-3(2H)-one], the values for the pIC50 in assay [2] and in assay [3] were 6.96 and 8.28, respectively.

On to `CC1NC(=O)NN=C1c1ccc(NC(=O)[C@@H](C)O)cc1` (stereo partly drawn) [13-(3), 6-(4-D-Lactoylaminophenyl)-5-methyl-4,5-dihydro-1,2,4-triazin-3(2H)-one], for which the “Effect Max (mean ratio of maximum decrease of blood pressure)” value in assay [1] (dose a: 0.1 mg/kg) turned out to be 22%; in assay [1] (dose b: 1 mg/kg), 50%. The pIC50 is 6.49 in assay [2] and 6.82 in assay [3].

Take `CC1NC(=O)NN=C1c1ccc(NC(=O)CCC(=O)O)cc1` (stereo not drawn) [13-(4), Sodium 3-[4-(3-methyl-4,5-dihydro-3(2H)-oxo-1,2,4-triazin-6-yl)phenylcarbamoyl]propionate]: the “Effect Max (ulcer area vs control)” value in assay [4] stood at 67.0%.

On to `CC1NC(=O)NN=C1c1ccc(NCCCN)cc1` (stereo not drawn) [21-(1), 6-[4-(3-aminopropylamino)phenyl]-5-methyl-4,5-dihyro-1,2,4-triazin-3(2H)-one], for which the pIC50 in assay [2] was 6.72; in assay [3], 7.33.

In the case of `C=CC(=O)Nc1ccc(C2=NNC(=O)NC2C)cc1` (stereo not drawn) [22-(1), 6-(4-Acryloylaminophenyl)-5-methyl-4,5-dihydro-1,2,4-triazin-3(2H)-one], the pIC50 was 7.17 in assay [2] and 7.80 in assay [3].

Take `CC1NC(=O)NN=C1c1ccc(NC(=O)CN)cc1` (stereo not drawn) [Example 29, 6-(4-glycyclaminophenyl)-5-methyl-4,5-dihydro-1,2,4-triazin-3(2H)-one hydrochloride]: the “Effect Max (mean ratio of maximum decrease of blood pressure)” value in assay [1] (dose a: 0.1 mg/kg) is 11.1%; in assay [1] (dose b: 1 mg/kg) it was 47.5%.
